Source: patent US11382935B2, “Composition for improving cognitive ability and preventing or treating dementia and attention deficit hyperactivity disorder, comprising Galla rhois extract and fraxin as active ingredients” (priority 2018, dated 2022)

Legend:
[1] = tested on: Human umbilical vein endothelial cells (HUVECs); assay: Antioxidant activity screening; format: cell-based; conditions: screening of components with known antioxidant activity
Method: Compounds used in the antioxidant activity screening of the present invention are A1 to A7 below:
(§1) Human umbilical vein endothelial cells (HUVECs) were treated with each of the 7 types of antioxidants A1-A7, and then an oxidant, hydrogen peroxide, was administered to analyze the degree of cell damage by an MTT assay, and then the activity of superoxide dismutase and catalase was measured.

HUVECs [2] = assay: Production of reactive oxygen species (ROS), DCF fluorescence, in H2O2-treated HUVECs; format: cell-based, Human; conditions: for ROS scavenging effect: HUVECs treated with antioxidant, then hydrogen peroxide; for reduction of the H2O2-induced increase in ROS level: H2O2-treated HUVECs, DCF fluorescence, H2O2 increases ROS by 55%
[3] = tested on: Human umbilical vein endothelial cells (HUVECs); assay: MTT assay of cell damage in hydrogen peroxide-treated HUVECs (cell regeneration effect); format: cell-based; conditions: HUVECs treated with antioxidant, then hydrogen peroxide
Method: as §1

HUVECs [4] = assay: Lipid peroxidation (LPO) assay, MDA amount, in H2O2-exposed cells; format: cell-based, Human; conditions: cells exposed to H2O2
[5] = DPPH assay of free radical-scavenging activity; format: biochemical; conditions: absorbance at 517 nm for 10 minutes
Method: In the present invention, the experiment was carried out with fraxin having a concentration of 0.5 mM, and this concentration is a result of performing an experiment of the free radical-scavenging activity of fraxin using a DPPH assay. A DPPH solution was treated with various concentrations of fraxin (0.02, 0.1 and 0.5 mM), and a change in absorbance was monitored at 517 nm for 10 minutes. The free radical scavenging activity was approximately 10%, 18% or 50% at the fraxin concentration of 0.02, 0.1 or 0.5 mM, respectively, and 0.5 mM was selected for subsequent experiment.

[6] = tested on: Superoxide dismutase (SOD); assay: Superoxide dismutase (SOD) assay in H2O2-treated HUVECs; format: cell-based, Human; conditions: treated before H2O2 treatment
Method: as §1

Row | Compound | antioxidant activity [1] | ROS scavenging effect (HUVECs [2]) | cell regeneration effect [3] | reduction of the H2O2-induced increase in MDA amount (LPO) (HUVECs [4]) | reduction of the H2O2-induced increase in ROS level (HUVECs [2]) [%] | free radical scavenging activity ([5]; 0.02 mM) | free radical scavenging activity ([5]; 0.1 mM) [%] | free radical scavenging activity ([5]; 0.5 mM) [%] | SOD activity [6]
1 | O=C(O)c1cc(O)c(O)c(O)c1 [gallic acid] | highest activity |  |  |  |  |  |  |  | 
2 | C[C@@H]1O[C@@H](O[C@@H]2[C@@H](O)[C@H](OCCc3ccc(O)c(O)c3)O[C@H](CO)[C@H]2OC(=O)/C=C/c2ccc(O)c(O)c2)[C@H](O)[C@H](O)[C@H]1O [A6, Acteoside] |  | did not show | did not show |  |  |  |  |  | 
3 | COc1cc2ccc(=O)oc2c(O[C@@H]2O[C@H](CO)[C@@H](O)[C@H](O)[C@H]2O)c1O [A3, fraxin] | highest activity | poor | high | greatly reduced | 39 | approximately 10% | ~18 | ~50 | increase
4 | COC(=O)c1cc(O)c(O)c(O)c1 [A4, methyl gallate] |  | high | high | greatly reduced | 24 |  |  |  | 
5 | O=C(CC(O)(CC(=O)OCc1ccc(O[C@@H]2O[C@H](CO)[C@@H](O)[C@H](O)[C@H]2O)cc1)C(=O)O)OCc1ccc(O[C@@H]2O[C@H](CO)[C@@H](O)[C@H](O)[C@H]2O)cc1 [A7, 1,3-bis[4-(3-D-glucopyranosyl)benzyl]citrate] |  | did not show | did not show |  |  |  |  |  | 
